The record followed here is patent US6407094B1, “Glutamate receptor antagonists” (Hoffmann-la Roche Inc., priority 1999, dated 2002).

SMILES strings stand for the structures. A value given as a limit tells only on which side of the number the result lay.

One series concerns the target T1, rat mGlu2 receptor (Rattus norvegicus, UniProt P31421).
T1 construct: expressed in transfected cells; host or cells: CHO cells, stably transfected with pcD1mGR2 (pcDNA I-amp), G-418 selected; membranes used
Description: [3H]-LY354740 binding on mGlu2 transfected CHO cell membranes.

T1 sequence (P31421 19-872): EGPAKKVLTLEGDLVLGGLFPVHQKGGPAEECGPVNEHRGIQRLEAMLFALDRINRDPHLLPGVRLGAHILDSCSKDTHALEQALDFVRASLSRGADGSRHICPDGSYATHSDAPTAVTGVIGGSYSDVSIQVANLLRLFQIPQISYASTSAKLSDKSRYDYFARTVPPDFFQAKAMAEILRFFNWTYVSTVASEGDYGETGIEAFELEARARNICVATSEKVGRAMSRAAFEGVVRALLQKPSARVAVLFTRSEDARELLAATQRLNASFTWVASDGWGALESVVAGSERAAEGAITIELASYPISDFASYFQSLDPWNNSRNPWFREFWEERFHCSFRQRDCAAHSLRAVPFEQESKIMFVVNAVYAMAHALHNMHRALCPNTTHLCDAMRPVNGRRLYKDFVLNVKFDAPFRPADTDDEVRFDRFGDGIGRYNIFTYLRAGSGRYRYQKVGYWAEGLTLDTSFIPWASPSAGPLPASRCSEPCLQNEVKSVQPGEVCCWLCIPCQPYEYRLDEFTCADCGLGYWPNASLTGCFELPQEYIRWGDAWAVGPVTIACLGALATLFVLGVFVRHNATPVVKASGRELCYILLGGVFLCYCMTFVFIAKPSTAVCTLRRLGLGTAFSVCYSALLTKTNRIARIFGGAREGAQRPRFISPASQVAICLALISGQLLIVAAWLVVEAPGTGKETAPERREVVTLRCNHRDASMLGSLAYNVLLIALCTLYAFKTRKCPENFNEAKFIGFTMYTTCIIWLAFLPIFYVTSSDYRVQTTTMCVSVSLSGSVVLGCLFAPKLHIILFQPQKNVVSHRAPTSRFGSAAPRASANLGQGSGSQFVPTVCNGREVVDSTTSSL

For the molecule `CSc1nccn1-c1cccc(C2=Nc3cc(O)c(-c4ccccc4F)cc3NC(=O)C2)c1` [Example 81, 8-(2-Fluoro-phenyl)-7-hydroxy-4-[3-(2-methylsulfanyl-imidazol-1-yl)-phenyl]-1,3-dihydro-benzo[b][1,4]diazepin-2-one], the melting point (commonly the temperature of the solid-liquid transition) is greater than 250 °C. For the same molecule, at rat mGlu2 receptor, the inhibition constant (Ki) – broadly, the equilibrium dissociation constant of an inhibitor or competing ligand from its target – was determined as 21 nM.
`O=C1CC(c2cccc(-n3ccnn3)c2)=Nc2cc(O)c(-c3ccccc3F)cc2N1` [Example 75, 8-(2-Fluoro-phenyl)-7-hydroxy-4-(3-[1,2,3]triazol-1-yl-phenyl)-1,3-dihydro-benzo[b][1,4]diazepin-2-one] returned a melting point greater than 250 °C. The inhibitory constant (Ki) on rat mGlu2 receptor turned out to be 28 nM.
For the molecule `N#Cc1cccc(C2=Nc3cc(Cl)c(-c4ccccc4)cc3NC(=O)C2)c1` [Example 7, 3-(8-Chloro-4-oxo-7-phenyl-4,5-dihydro-3H-benzo[b][1,4]diazepin-2-yl)-benzonitrile], the melting point is 242 to 244 °C (dec.). The Ki at rat mGlu2 receptor was 120 nM.
The matching figures for `COc1cc2c(cc1-c1ccccc1F)NC(=O)CC(c1ccc(C#N)s1)=N2` [Example 69]: greater than 250 °C and 168 nM.
Regarding `COc1cc2c(cc1-c1ccccc1F)NC(=O)CC(c1ccnc(C#N)c1)=N2` [Example 71, 4-[7-(2-Fluoro-phenyl)-8-methoxy-4-oxo-4,5-dihydro-3H-benzo[b][1,4]diazepin-2-yl)-pyridine-2-carbonitrile], the melting point lay within 240 to 242 °C. Also, the affinity at rat mGlu2 receptor, expressed as Ki, was 33 nM.
The matching figures for `COCCOc1cc2c(cc1C#Cc1ccccc1)NC(=O)CC(c1cccc(I)c1)=N2` [Example 25]: 192 °C (dec.) and 21 nM.
Turning to `COC(=O)CSc1cc2c(cc1C#Cc1ccccc1)NC(=O)CC(c1cccc(C#N)c1)=N2` [Example 12, [4-(3-Cyano-phenyl)-2-oxo-8-phenylethynyl-2,3-dihydro-1H-benzo[b][1,4]diazepin-7-ylsulfanyl]-acetic acid methyl ester], the melting point was 201 °C (dec.). The Ki on rat mGlu2 receptor came out at 51 nM.
The matching figures for `O=C1CC(c2cccc(-n3ccnc3)c2)=Nc2cc(N3CCC(OCCO)CC3)c(-c3ccc(F)cc3)cc2N1` [Example 45, 8-(4-Fluoro-phenyl)-7-[4-(2-hydroxy-ethoxy)-piperidin-1-yl]-4-(3-imidazol-1-yl-phenyl)-1,3-dihydro-benzo[b][1,4]diazepin-2-one]: 225 to 227 °C and 100 nM.
The matching figures for `COc1cc2c(cc1C#Cc1ccccc1)NC(=O)CC(c1cccc(C#N)c1)=N2` [Example 20, 3-(8-Methoxy-4-oxo-7-phenylethynyl-4,5-dihydro-3H-benzo[b][1,4]diazepin-2-yl)-benzonitrile]: greater than 250 °C and 46 nM.
`O=C1CC(c2cccc(-n3ccnc3)c2)=Nc2cc(OCCO)c(C#Cc3ccccc3)cc2N1` [Example 42, 7-(2-Hydroxy-ethoxy)-4-(3-imidazol-1-yl-phenyl)-8-phenylethynyl-1,3-dihydro-benzo[b][1,4]diazepin-2-one] displayed a melting point of 224 to 227 °C. For the same molecule, the Ki at rat mGlu2 receptor amounted to 32 nM.
The matching figures for `COc1cc2c(cc1-c1cc(F)ccc1F)NC(=O)CC(c1cccc(-n3ccnn3)c1)=N2` [Example 83, 8-(2,5-Difluoro-phenyl)-7-methoxy-4-(3-[1,2,3]triazol-1-yl-phenyl)-1,3-dihydro-benzo[b][1,4]diazepin-2-one]: 241 °C and 12 nM.
The matching figures for `N#Cc1cccc(C2=Nc3cc(CC(N)=O)c(C#Cc4ccccc4)cc3NC(=O)C2)c1` [Example 17, 2-[4-(3-Cyano-phenyl)-2-oxo-8-phenylethynyl-2,3-dihydro-1H-benzo[b][1,4]diazepin-7-yl]-acetamide]: 250 °C (dec.) and 37 nM.
The matching figures for `COCCOc1cc2c(cc1C#Cc1ccccc1)NC(=O)CC(c1cccc(-n3ccnc3)c1)=N2` [Example 27, 4-(3-Imidazol-1-yl-phenyl)-7-(2-methoxy-ethoxy)-8-phenylethynyl-1,3-dihydro-benzo[b][1,4]diazepin-2-one]: 187 to 189 °C and 12 nM.
